# Laboratory results taken from patent publication US20050009913A1, “Method for inactivating bacteria and leukocytes in thrombocyte suspensions” (priority 2001, published 2005).
# Tests used:
# Enterobacter cloacae = assay: Photoinactivation of Enterobacter cloacae in TC (colony forming assay); format: cell-based; settings: 1 mM delta-Ala
# Protocol: (§1) In the experiments described, TC was used which had been obtained from the buffy coats of donor blood and which was suspended in plasma or in a conventional storage medium (T-sol) with approximately 40% plasma. A system fitted with xenon lamps and in which the emitted UV fraction was masked out by a window glass filter was used for the exposure. Staphylococcus (S.) epidermidis was generally used as the test bacterium. Bacteria titres were determined using a colony forming assay. These are given in “colony forming units per ml” (CFU/ml).
# (§2) In the experiments on the inactivation of bacteria TC aliquots of respectively 60 ml located in PVC storage bags having a nominal volume of 500 ml were treated. After adding delta-Ala or the methyl ester of delta-Ala (see Table 1) the samples were pre-incubated for one hour at room temperature in the thrombocyte rotator and then exposed to light. In the experiments on the inactivation of leukocytes the samples were pre-incubated overnight (i.e., for approximately 16-20 h) or for 4 hours. The light energy deposited in the samples is given in kilojoules per m^2 (kJ/m^2). 3000 kJ/m^2 corresponds to an exposure time of about one hour. Each experiment was carried out at least twice.
# Staphylococcus aureus = assay: Photoinactivation of Staphylococcus aureus in TC (colony forming assay); format: cell-based; settings: 1 mM delta-Ala
# Protocol: as §1, §2
# Serratia marescens = assay: Photoinactivation of Serratia marescens in TC (colony forming assay); format: cell-based; settings: 1 mM delta-Ala
# Protocol: as §1, §2
# Pseudomonas aeroginosa = assay: Photoinactivation of Pseudomonas aeroginosa in TC (colony forming assay); format: cell-based; settings: 1 mM delta-Ala
# Protocol: as §1, §2
# T lymphocytes = assay: Photoinactivation of T lymphocytes in TC (Con A proliferation assay, BRDU incorporation); format: cell-based; settings: pre-incubation approx. 16 h, light energy input 2000 kJ/m^2 (FIG. 5)
# Protocol: as §2
# Yersinia enterocolitica = assay: Photoinactivation of Yersinia enterocolitica in TC (colony forming assay); format: cell-based; settings: 1 mM delta-Ala
# Protocol: as §1, §2
# S. epidermidis = assay: Photoinactivation of S. epidermidis in TC (colony forming assay); format: cell-based, Staphylococcus epidermidis; settings: for Bacteria titre after light, Exp. 1 / Bacteria titre after light, Exp. 2: compound 2 mM, light energy input 3000 kJ/m^2
# Protocol: as §1, §2
# In order to determine the quantity of light sufficient to largely inactivate S. epidermidis, i.e., by at least 2 log10 grades, the following experiments were carried out: 1000 to 1500 CFU/ml S. epidermidis was added to TC, either in storage medium having a plasma content of approximately 40% or in plasma; delta-Ala was then added in a concentration of 0.25 mM (plasma-reduced TC) or 1 mM (TC with approximately 100% plasma). After pre-incubating for one hour at room temperature, the samples were exposed to different amounts of light. The results are plotted in FIGS. 3 and 4.
# Escherichia coli = assay: Photoinactivation of Escherichia coli in TC (colony forming assay); format: cell-based; settings: 1 mM delta-Ala
# Protocol: as §1, §2
# thrombocytes = assay: Functional in-vitro properties of TC after delta-Ala and exposure to light (hypotonic shock reaction, collagen-induced aggregation); format: cell-based; settings: after treatment with delta-Ala and subsequent exposure to light
# [1] = after exposure, 1500 kJ/m^2, average of two experiments
# [2] = before exposure, average of two experiments
compound,measurement,setting,value
"NCC(=O)CCC(=O)O [Delta-Ala, 6-aminolevulinic acid]",Reduction of infectious titre,Enterobacter cloacae; 1500 kJ/m^2,approximately 95%
same,Bacteria titre after exposure,Enterobacter cloacae; [1],1280 CFU/ml
same,Bacteria titre before exposure,Enterobacter cloacae; [2],24500 CFU/ml
same,Reduction of infectious titre,Staphylococcus aureus; 1500 kJ/m^2,~97%
same,Bacteria titre after exposure,Staphylococcus aureus; [1],51 CFU/ml
same,Bacteria titre before exposure,Staphylococcus aureus; [2],2000 CFU/ml
same,Bacteria titre after exposure,Serratia marescens; [1],1 CFU/ml
same,Bacteria titre before exposure,Serratia marescens; [2],2500 CFU/ml
same,Bacteria titre after exposure,Pseudomonas aeroginosa; [1],1 CFU/ml
same,Bacteria titre before exposure,Pseudomonas aeroginosa; [2],700 CFU/ml
same,Required concentration of delta-Ala for photoinactivation of T lymphocytes,T lymphocytes,higher than 1 mM
same,Bacteria titre after exposure,Yersinia enterocolitica; [1],1 CFU/ml
same,Bacteria titre before exposure,Yersinia enterocolitica; [2],4650 CFU/ml
same,"Bacteria titre after light, Exp. 1",S. epidermidis; TC in 100% plasma,5 CFU/ml
same,"Bacteria titre after light, Exp. 2",S. epidermidis; TC in 100% plasma,3.5 CFU/ml
same,Bacteria titre after exposure,"S. epidermidis; TC, 1 mM delta-Ala, after exposure, 1500 kJ/m^2, average of two experiments",2 CFU/ml
same,Bacteria titre before exposure,"S. epidermidis; TC, 1 mM delta-Ala, before exposure, average of two experiments",2440 CFU/ml
same,delta-Ala concentration sufficient for inactivation,"S. epidermidis; plasma-reduced TC, light energy input 3000 kJ/m^2 (FIG. 2)",≤ 0.1 mM
same,Light energy to be irradiated for extensive inactivation of the bacteria,"S. epidermidis; thrombocytes suspended in 100% plasma, 1 mM delta-Ala, pre-incubation one hour (FIG. 4)",approximately 3000 kJ/m^2
same,Bacteria titre after exposure,Escherichia coli; [1],3 CFU/ml
same,Bacteria titre before exposure,Escherichia coli; [2],11300 CFU/ml
same,Functional in-vitro properties of TC and other thrombocyte parameters after treatment,thrombocytes,had not changed
"COC(=O)CCC(=O)CN [Methyl-Ala, delta-Ala methyl ester]",Efficacy of inactivation of S. epidermidis compared with delta-Ala,"S. epidermidis; TC in 100% plasma, 2 mM, 3000 kJ/m^2 (Table 1)",the same efficacy
same,"Bacteria titre after light, Exp. 1",S. epidermidis; TC in 100% plasma,1.5 CFU/ml
same,"Bacteria titre after light, Exp. 2",S. epidermidis; TC in 100% plasma,4 CFU/ml
